{"source": "patent US20090203689A1", "about": "“ABCA-1 ELEVATING COMPOUNDS AND METHODS” (priority 2008, published 2009)", "test_system": "ABCA-1", "assay": "Measurement of ABCA-1 protein expression (western blot) in liver of treated ZDF rats", "type": "in vivo, ZDF (Zucker diabetic fatty) rats", "details": "treated at 0, 2 and 4 hrs, western blot quantitated by densitometry, normalized to time-point vehicle controls, time-course (FIG. 2)", "description": "FIG. 2 illustrates the time-course of the effect of treatment on hepatic ABCA1 protein expression in ZDF rats. Rats were treated with a test compound of Formula I at 0, 2 and 4 hrs. […] ABCA1 protein expression was measured by western blot and quantitated by densitometry, Time-point vehicle controls were used to normalize ABCA1 expression at each time-point.\nCellular ABCA-1 protein expression in cells or tissues were quantitated from homogenates prepared from tissue or cells homogenized in a lysis buffer containing protease inhibitors. Lysate proteins were separated by SDS-PAGE and western blotted for ABCA11 and a housekeeping protein. ABCA-1 was detected with a mouse monoclonal antibody that cross-reacts with human, rat and mouse. β-Actin (or other commonly used normalization proteins) were detected with the appropriate commercial antibody. Using the described assay, the effect of treatment on hepatic ABCA1 protein expression in ZDF rats was determined. Rats were treated with a test compound of Formula I at 0, 2 and 4 hrs. […] Time-point vehicle controls were used to normalize ABCA1 expression at each time-point. The test compound of Formula I used in the experiments of FIG. 2 was 2-{6-[((1R,2R)-2-hydroxycyclopentyl)amino]purin-9-yl}(4S,5S,2R,3R)-5-[(2-fluorophenylthio)methyl]oxolane-3,4-diol."}
{"smiles": "O[C@@H]1[C@H](O)[C@@H](CSc2ccccc2F)O[C@H]1n1cnc2c(N[C@@H]3CCC[C@H]3O)ncnc21", "note": "[2-{6-[((1R,2R)-2-hydroxycyclopentyl)amino]purin-9-yl}(4S,5S,2R,3R)-5-[(2-fluorophenylthio)methyl]oxolane-3,4-diol]", "values": [{"measurement": "hepatic ABCA1 protein expression", "value": "increases ABCA-1 protein expression with time"}]}
